Experiments:
[1] = test system: SAMURI / 17-mer substrate RNA (RNA, ribozyme) GGUUGAAGGCAUGGCUCAGGGACUUCGGUCCGCUGCAGUCAGUAUGUCC/ACAUACUGAGCCUUCAA; assay: Michaelis-Menten fit of kobs, alkylation of Cy5-labelled substrate, denaturing PAGE; conditions: 120 mM KCl, 5 mM NaCl, 10 mM MgCl2; 50 mM HEPES, pH 7.5, 37 °C; apparent; 32.6 ± 2.2 µM at 0.5 mM Mg2+; covalent transfer to substrate
[2] = test system: SAMURI / 17-mer substrate RNA (RNA, ribozyme) GGUUGAAGGCAUGGCUCAGGGACUUCGGUCCGCUGCAGUCAGUAUGUCC/ACAUACUGAGCCUUCAA; assay: inhibition of SAMURI trans-propargylation, PAGE; conditions: 120 mM KCl, 5 mM NaCl, 10 mM MgCl2; pH 7.5, 37 °C, 1 h; no competition with 10 µM ProSeDMA up to 1 mM SAM; methylates substrate at 3 mM

Km,app [1] | binding [2] | Structure (SMILES)
8.9 ± 1.9 µM |  | C#CC[Se+](CCC(N)C(N)=O)C[C@H]1O[C@@H](n2cnc3c(N)nc(N)nc32)[C@H](O)[C@@H]1O (some centres unmarked)
 | weak | C[S+](CC[C@H](N)C(=O)O)C[C@H]1O[C@@H](n2cnc3c(N)ncnc32)[C@H](O)[C@@H]1O (some centres unmarked)

— article PMC10624628 (2023)
